One assay has as its target CK1δ (Homo sapiens, UniProt P48730). Kind of assay: CK1δ kinase assay (Caliper LabChip electrophoretic separation of fluoresceinated peptide substrate and product). In kind it is biochemical. Conditions: 200 pM CK1δ, 50 μM ATP, 1.5 μM peptide, 22 hours at room temperature. The essentials:
(§1)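 Incubated for twenty-two hours at ambient temperature, then quenched with EDTA and analyzed by electrophoretic separation of unphosphorylated and phosphorylated peptide.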

In another assay the target is CK1ε (Homo sapiens, UniProt P49674). In words: CK1ε kinase assay (Caliper LabChip electrophoretic separation of fluoresceinated peptide substrate and product). In kind it is biochemical. Conditions: 200 pM CK1ε, 50 μM ATP, 1.5 μM peptide, 22 hours at room temperature. The essentials:
as §1

Like-named read-outs stand apart in the source and are kept apart here.

CK1ε, sequence (P49674 whole entry): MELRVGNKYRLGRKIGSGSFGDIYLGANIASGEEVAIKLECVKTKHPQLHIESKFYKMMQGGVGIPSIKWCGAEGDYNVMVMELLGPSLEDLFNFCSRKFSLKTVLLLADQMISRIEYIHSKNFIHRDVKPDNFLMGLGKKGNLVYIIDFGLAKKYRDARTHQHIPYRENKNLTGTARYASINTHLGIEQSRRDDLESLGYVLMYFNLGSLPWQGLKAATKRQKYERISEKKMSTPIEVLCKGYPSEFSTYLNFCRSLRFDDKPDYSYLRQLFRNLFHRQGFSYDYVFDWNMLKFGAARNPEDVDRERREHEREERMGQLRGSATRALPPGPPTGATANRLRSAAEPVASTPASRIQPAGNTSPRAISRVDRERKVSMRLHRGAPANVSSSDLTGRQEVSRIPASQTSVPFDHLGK
CK1δ, sequence (P48730 whole entry): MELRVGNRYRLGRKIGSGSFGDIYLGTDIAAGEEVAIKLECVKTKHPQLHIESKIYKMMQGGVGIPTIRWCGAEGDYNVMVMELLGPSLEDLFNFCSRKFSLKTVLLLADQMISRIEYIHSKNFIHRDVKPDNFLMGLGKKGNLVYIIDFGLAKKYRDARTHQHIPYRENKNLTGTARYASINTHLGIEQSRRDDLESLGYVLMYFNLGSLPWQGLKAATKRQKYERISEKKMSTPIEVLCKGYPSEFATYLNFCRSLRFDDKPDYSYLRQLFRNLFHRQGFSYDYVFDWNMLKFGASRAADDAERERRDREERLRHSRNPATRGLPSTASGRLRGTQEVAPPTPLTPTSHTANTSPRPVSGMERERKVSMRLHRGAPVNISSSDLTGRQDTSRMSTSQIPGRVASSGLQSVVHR

Turning to `CC1(NC(=O)N2CCn3nc(-c4cc(Cl)cc(Cl)c4)c(C(N)=O)c3C2)CC(F)(F)C1` [Compound 298, 2-(3,5-Dichlorophenyl)-N^5-(3,3-difluoro-1-methylcyclobutyl)-6,7-dihydropyrazolo[1,5-a] pyrazine-3,5(4H)-dicarboxamide], the IC50 on CK1δ (read-out: CK1δ IC50 range) and on CK1ε (read-out: CK1ε IC50 range) was 0.01 to 10 nM each time.
Turning to `CC1(NC(=O)N2CCn3nc(-c4cccc(Cl)c4)c(C(N)=O)c3C2)CC(F)(F)C1` [Compound 299, 2-(3-Chlorophenyl)-N^5-(3,3-difluoro-1-methylcyclobutyl)-6,7-dihydropyrazolo[1,5-a] pyrazine-3,5(4H)-dicarboxamide], the IC50 on CK1δ (read-out: CK1δ IC50 range) and at CK1ε (read-out: CK1ε IC50 range) was 0.01 to 10 nM throughout.
`CC1(NC(=O)N2CCn3nc(-c4cc(F)cc(Cl)c4)c(C(N)=O)c3C2)CC(F)(F)C1` [Compound 300, 2-(3-Chloro-5-fluorophenyl)-N^5-(3,3-difluoro-1-methylcyclobutyl)-6,7-dihydropyrazolo[1,5-a]pyrazine-3,5(4H)-dicarboxamide]: the IC50 at CK1δ (read-out: CK1δ IC50 range) and at CK1ε (read-out: CK1ε IC50 range) was 0.01 to 10 nM throughout.
As to `NC(=O)c1c(-c2ccc(F)c(Cl)c2)nn2c1CN(C(=O)NC1(C(F)F)CC(F)(F)C1)CC2` [Compound 304, 2-(3-Chloro-4-fluorophenyl)-N^5-(1-(difluoromethyl)-3,3-difluorocyclobutyl)-6,7-dihydropyrazolo[1,5-a]pyrazine-3,5(4H)-dicarboxamide], the IC50 at CK1δ (read-out: CK1δ IC50 range) and on CK1ε (read-out: CK1ε IC50 range) was 0.01 to 10 nM throughout.
As to `NC(=O)c1c(-c2ccc(Cl)c(Cl)c2)nn2c1CN(C(=O)NC1(C(F)F)CC(F)(F)C1)CC2` [Compound 305, 2-(3,4-Dichlorophenyl)-N^5-(1-(difluoromethyl)-3,3-difluorocyclobutyl)-6,7-dihydropyrazolo[1,5-a] pyrazine-3,5(4H)-dicarboxamide], the IC50 at CK1δ (read-out: CK1δ IC50 range) and on CK1ε (read-out: CK1ε IC50 range) was 0.01 to 10 nM each time.
With `NC(=O)c1c(-c2cccc(Cl)c2)nn2c1CN(C(=O)NC1(C(F)F)CC(F)(F)C1)CC2` [Compound 306, 2-(3-Chlorophenyl)-N^5-(1-(difluoromethyl)-3,3-difluorocyclobutyl)-6,7-dihydropyrazolo[1,5-a] pyrazine-3,5(4H)-dicarboxamide], the IC50 at CK1δ (read-out: CK1δ IC50 range) and at CK1ε (read-out: CK1ε IC50 range) was 0.01 to 10 nM in each case.
Regarding `CC1(F)CC(C)(NC(=O)N2CCn3nc(-c4ccc(F)c(Cl)c4)c(C(N)=O)c3C2)C1` (centres unmarked) [Compound 307, 2-(3-Chloro-4-fluorophenyl)-N^5-(3-fluoro-1,3-dimethylcyclobutyl)-6,7-dihydropyrazolo[1,5-a]pyrazine-3,5(4H)-dicarboxamide], the IC50 at CK1δ (read-out: CK1δ IC50 range) and at CK1ε (read-out: CK1ε IC50 range) was 0.01 to 10 nM throughout.
Turning to `NC(=O)c1c(-c2ccc(F)c(Cl)c2)nn2c1CN(C(=O)NC1(c3ccc(F)cc3)CC(F)(F)C1)CC2` [Compound 308, 2-(3-Chloro-4-fluorophenyl)-N^5-(3,3-difluoro-1-(4-fluorophenyl)cyclobutyl)-6,7-dihydropyrazolo[1,5-a]pyrazine-3,5(4H)-dicarboxamide], the IC50 on CK1δ (read-out: CK1δ IC50 range) and at CK1ε (read-out: CK1ε IC50 range) was 0.01 to 10 nM in each case.
As to `NC(=O)c1c(-c2cccc(Cl)c2)nn2c1CN(C(=O)NC1(c3ccc(F)cc3)CC(F)(F)C1)CC2` [Compound 309, 2-(3-Chlorophenyl)-N^5-(3,3-difluoro-1-(4-fluorophenyl)cyclobutyl)-6,7-dihydropyrazolo[1,5-a] pyrazine-3,5(4H)-dicarboxamide], the IC50 at CK1δ (read-out: CK1δ IC50 range) and on CK1ε (read-out: CK1ε IC50 range) was 0.01 to 10 nM throughout.
Consider `NC(=O)c1c(-c2ccc(Cl)c(Cl)c2)nn2c1CN(C(=O)NC1(c3ccc(F)cc3)CC(F)(F)C1)CC2` [Compound 310, 2-(3,4-Dichlorophenyl)-N^5-(3,3-difluoro-1-(4-fluorophenyl)cyclobutyl)-6,7-dihydropyrazolo[1,5-a] pyrazine-3,5(4H)-dicarboxamide], for which the IC50 on CK1δ (read-out: CK1δ IC50 range) and on CK1ε (read-out: CK1ε IC50 range) was 0.01 to 10 nM in each case.
On to `NC(=O)c1c(-c2ccc(F)c(Cl)c2)nn2c1CN(C(=O)NC1(c3cccnc3)CC(F)(F)C1)CC2` [Compound 311, 2-(3-Chloro-4-fluorophenyl)-N^5-(3,3-difluoro-1-(pyridin-3-yl)cyclobutyl)-6,7-dihydropyrazolo[1,5-a]pyrazine-3,5(4H)-dicarboxamide], for which the IC50 on CK1δ (read-out: CK1δ IC50 range) and at CK1ε (read-out: CK1ε IC50 range) was 0.01 to 10 nM throughout.
For the compound `NC(=O)c1c(-c2cccc(Cl)c2)nn2c1CN(C(=O)NC1(c3cccnc3)CC(F)(F)C1)CC2` [Compound 312, 2-(3-Chlorophenyl)-N^5-(3,3-difluoro-1-(pyridin-3-yl)cyclobutyl)-6,7-dihydropyrazolo[1,5-a]pyrazine-3,5(4H)-dicarboxamide], the IC50 on CK1δ (read-out: CK1δ IC50 range) and on CK1ε (read-out: CK1ε IC50 range) was 0.01 to 10 nM each time.
`NC(=O)c1c(-c2ccc(Cl)c(Cl)c2)nn2c1CN(C(=O)NC1(c3cccnc3)CC(F)(F)C1)CC2` [Compound 313, 2-(3,4-Dichlorophenyl)-N^5-(3,3-difluoro-1-(pyridin-3-yl)cyclobutyl)-6,7-dihydropyrazolo[1,5-a]pyrazine-3,5(4H)-dicarboxamide]: the IC50 at CK1δ (read-out: CK1δ IC50 range) and on CK1ε (read-out: CK1ε IC50 range) was 0.01 to 10 nM throughout.
For `N#Cc1ccc(C2(NC(=O)N3CCn4nc(-c5ccc(F)c(Cl)c5)c(C(N)=O)c4C3)CC(F)(F)C2)cc1` [Compound 314, 2-(3-Chloro-4-fluorophenyl)-N^5-(1-(4-cyanophenyl)-3,3-difluorocyclobutyl)-6,7-dihydropyrazolo[1,5-a]pyrazine-3,5(4H)-dicarboxamide], the IC50 on CK1δ (read-out: CK1δ IC50 range) and at CK1ε (read-out: CK1ε IC50 range) was 0.01 to 10 nM in each case.
Consider `N#Cc1ccc(C2(NC(=O)N3CCn4nc(-c5cccc(Cl)c5)c(C(N)=O)c4C3)CC(F)(F)C2)cc1` [Compound 315, 2-(3-Chlorophenyl)-N^5-(1-(4-cyanophenyl)-3,3-difluorocyclobutyl)-6,7-dihydropyrazolo[1,5-a]pyrazine-3,5(4H)-dicarboxamide], for which the IC50 at CK1δ (read-out: CK1δ IC50 range) and on CK1ε (read-out: CK1ε IC50 range) was 0.01 to 10 nM in each case.
Take `N#Cc1ccc(C2(NC(=O)N3CCn4nc(-c5ccc(Cl)c(Cl)c5)c(C(N)=O)c4C3)CC(F)(F)C2)cc1` [Compound 316, N^5-(1-(4-Cyanophenyl)-3,3-difluorocyclobutyl)-2-(3,4-dichlorophenyl)-6,7-dihydropyrazolo[1,5-a]pyrazine-3,5(4H)-dicarboxamide]: the IC50 on CK1δ (read-out: CK1δ IC50 range) and on CK1ε (read-out: CK1ε IC50 range) was 0.01 to 10 nM throughout.
Regarding `CC1(NC(=O)N2CCn3nc(-c4ccc(F)c(Cl)c4)c(C(N)=O)c3C2)CC2(CC2)C1` [Compound 317, 2-(3-Chloro-4-fluorophenyl)-N^5-(5-methylspiro[2.3]hexan-5-yl)-6,7-dihydropyrazolo[1,5-a]pyrazine-3,5(4H)-dicarboxamide], the IC50 on CK1δ (read-out: CK1δ IC50 range) and on CK1ε (read-out: CK1ε IC50 range) was 0.01 to 10 nM each time.
For the compound `CC1(NC(=O)N2CCn3nc(-c4cccc(Cl)c4)c(C(N)=O)c3C2)CC2(CC2)C1` [Compound 318, 2-(3-Chlorophenyl)-N^5-(5-methylspiro[2.3]hexan-5-yl)-6,7-dihydropyrazolo[1,5-a]pyrazine-3,5(4H)-dicarboxamide], the IC50 on CK1δ (read-out: CK1δ IC50 range) and on CK1ε (read-out: CK1ε IC50 range) was 0.01 to 10 nM each time.
Take `CC1(NC(=O)N2CCn3nc(-c4ccc(Cl)c(Cl)c4)c(C(N)=O)c3C2)CC2(CC2)C1` [Compound 319, 2-(3,4-Dichlorophenyl)-N^5-(5-methylspiro[2.3]hexan-5-yl)-6,7-dihydropyrazolo[1,5-a]pyrazine-3,5(4H)-dicarboxamide]: the IC50 on CK1δ (read-out: CK1δ IC50 range) and on CK1ε (read-out: CK1ε IC50 range) was 0.01 to 10 nM each time.
As for `N#CC1(NC(=O)N2CCn3nc(-c4ccc(F)c(Cl)c4)c(C(N)=O)c3C2)CCOC1` (centres unmarked) [Compound 334, 2-(3-Chloro-4-fluorophenyl)-N^5-(3-cyanotetrahydrofuran-3-yl)-6,7-dihydropyrazolo[1,5-a]pyrazine-3,5(4H)-dicarboxamide], the IC50 at CK1δ (read-out: CK1δ IC50 range) and on CK1ε (read-out: CK1ε IC50 range) was 0.01 to 10 nM each time.
For `CC(C)(O)[C@H](F)CNC(=O)N1CCn2nc(-c3ccc(Cl)c(Cl)c3)c(C(N)=O)c2C1` [Compound 338, (R)-2-(3,4-Dichlorophenyl)-N^5-(2-fluoro-3-hydroxy-3-methylbutyl)-6,7-dihydropyrazolo[1,5-a]pyrazine-3,5(4H)-dicarboxamide], the IC50 on CK1δ (read-out: CK1δ IC50 range) and at CK1ε (read-out: CK1ε IC50 range) was 0.01 to 10 nM each time.
As for `NC(=O)c1c(-c2ccc(F)c(Cl)c2)nn2c1CN(C(=O)NC1CN(CC(F)(F)F)C1)CC2` [Compound 339, 2-(3-Chloro-4-fluorophenyl)-N^5-(1-(2,2,2-trifluoroethyl)azetidin-3-yl)-6,7-dihydropyrazolo[1,5-a]pyrazine-3,5(4H)-dicarboxamide], the IC50 at CK1δ (read-out: CK1δ IC50 range) and at CK1ε (read-out: CK1ε IC50 range) was 0.01 to 10 nM in each case.
On to `CC(C)(C)NC(=O)N1Cc2c(C(N)=O)c(-c3ccc(F)c(Cl)c3)nn2[C@H]2COC[C@H]21` [Compound 352, (5aS,8aR)—N^5-(tert-Butyl)-2-(3-chloro-4-fluorophenyl)-5a,6,8,8a-tetrahydrofuro[3,4-e]pyrazolo[1,5-a]pyrazine-3,5(4H)-dicarboxamide], for which the IC50 on CK1δ (read-out: CK1δ) is 18.1 nM; at CK1δ (read-out: CK1δ IC50 range) it was 10 to 100 nM; on CK1ε (read-out: CK1ε), 19.8 nM; at CK1ε (read-out: CK1ε IC50 range), 10 to 100 nM.
As to `NC(=O)c1c(-c2ccc(F)c(Cl)c2)nn2c1CN(C(=O)NC1CC(F)(F)C1)[C@@H]1COC[C@@H]12` [Compound 353, (5aS,8aR)-2-(3-Chloro-4-fluorophenyl)-N^5-(3,3-difluorocyclobutyl)-5a,6,8,8a-tetrahydrofuro[3,4-e]pyrazolo [1,5-c]pyrazine-3,5(4H)-dicarboxamide], the IC50 on CK1δ (read-out: CK1δ IC50 range) and at CK1ε (read-out: CK1ε IC50 range) was 0.01 to 10 nM in each case.

(Values after patent US9273058B2 (BRISTOL-MYERS SQUIBB COMPANY, priority 2013, dated 2016).)
